Measured values: PMC9781268, “2-Arylpropionic Acid Pyrazolamides as Cannabinoid CB2 Receptor Inverse Agonists Endowed with Anti-Inflammatory Properties” (Pharmaceuticals, 2022)
Values after ≈ are worked out from the molar mass of the structure shown. “Also recorded” adds a separate entry of the source.

Tests used:
[1] = Parallel artificial membrane permeability assay, gastrointestinal (PAMPA-GI / PAMPA-GTI)
Method: A 10 mM solution of each compound (tests and controls) was prepared in DMSO. Then, in a 5 mL glass flask, 250 µL of the freshly prepared solution was homogenized with 4750 µL of PBS at pH 6.6 to a concentration of 10 mM. The solution was then filtered in a 0.45 µm PVDF filter and set aside. Then, 180 µL of a solution of phosphate-bufffered saline (PBS, pH 7.4):DMSO (95:5) was added to the wells of the receptor plate, and 5 µL of the soy L-α-phosphatidylcholine lipid solution (20 mg/mL in dodecane) was added to the wells of the donor plate. After 5 min, the donor plate received 180 µL of the reserved solution containing each compound. […] After this period, the donor plate was removed, and the contents of the recipient plate were transferred to a UV reading plate and read (SpectraMax 5, Molecular Devices) at the maximum wavelengths for each compound. The blank was prepared with 180 µL of PBS solution (pH 7.4):DMSO (95:5). The experiments were carried out in triplicate with two different analyses (n = 2) [37]. The optical density values obtained from the readings at each selected wavelength for each of the compounds were analyzed by comparison with the values of the controls. These values were used to determine the absorbed fraction (Fa %) using the JMP® program version 10.0.

[2] = Distribution coefficient at pH 7.4 (shake-flask, octanol/phosphate buffer); assay type: physicochemical; conditions: 1-octanol/buffer pH 7.4; n-octanol/buffer partitioning at pH 7.4, UV method; read-out: Log D7.4
Method: The assay was performed based on the shake-flask method and the absorbance readings by ultraviolet spectroscopy at maximum absorbance wavelength. To a Falcon tube with a capacity of 15 mL, 5 mL of buffer solution at pH 7.4 and 5 mL of 1-octanol were added. Then, the tested compounds were added at defined concentrations of approximately 10–15 µM, and the mixtures were homogenized via vigorous manual shaking. Next, the Falcon tubes were stirred for 4 h at 37 °C, and the experiment was carried out in triplicate for each compound. Subsequently, each sample was placed in a separatory funnel, and the collected aqueous phase was filtered through a 0.45 µm PVDF filter and transferred to a quartz cuvette (10 mm optical path) for UV/Vis reading. The distribution coefficient of each compound at pH 7.4 was determined by linear regression using the straight-line equation [33].

human CB2 [3] = target: T1, human CB2 (Homo sapiens, UniProt P34972); assay: Inverse agonist activity, cAMP Hunter CHO-K1 CNR2 Gi cells (HitHunter cAMP XS+); assay type: cell-based; design: host or cells: cAMP Hunter CHO-K1 CNR2 Gi; conditions: inverse agonism, cAMP increase, 8 μM (EC20) forskolin
T1 sequence (P34972 whole entry): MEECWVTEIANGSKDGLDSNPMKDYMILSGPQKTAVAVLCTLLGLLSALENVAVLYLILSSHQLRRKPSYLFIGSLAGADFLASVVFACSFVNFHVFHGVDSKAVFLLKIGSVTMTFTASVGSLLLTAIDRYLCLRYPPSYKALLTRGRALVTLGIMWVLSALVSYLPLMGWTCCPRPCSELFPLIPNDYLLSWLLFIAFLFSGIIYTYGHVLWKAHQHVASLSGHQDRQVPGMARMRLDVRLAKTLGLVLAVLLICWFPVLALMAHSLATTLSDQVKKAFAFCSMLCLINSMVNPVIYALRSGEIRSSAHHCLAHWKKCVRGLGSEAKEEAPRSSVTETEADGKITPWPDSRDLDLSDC
Method: The cellular functional assay used to evaluate the inverse agonist activity of LASSBio-2265 (11) toward the cannabinoid CB2 receptor was carried out at Eurofins DiscoveryX Corporation USA (https://www.discoverx.com/home) under the study number FR095-0025341-Q (accessed on 02 June 2021) using the GPCR Biosensor Assay. Cell line cAMP Hunter CHO-K1 CNR2 Gi was seeded at a total volume of 20 µL into white-walled, 384-well microplates and incubated at 37 °C prior to testing in the presence of 8 μM (EC20) forskolin. The media was aspirated from the cells and replaced with 15 µL a 2:1 solution of Hanks’ balanced salt solution (HBSS)/10 mM Hepes:cAMP XS+ Ab reagent. Intermediate dilution of the sample stocks was performed to generate 4× samples in assay buffer containing 32 μM forskolin. Then, 5 µL of each 4× sample was added to the cells and incubated at 37 °C for 60 min. […] After signal generation, the microplates were read with a PerkinElmer Envision instrument for chemiluminescent signal detection. Compound activity was analyzed using the CBIS data analysis suite (ChemInnovation, San Diego, CA, USA). Percent activity was calculated using the following formula: […]
(§1) Data obtained from duplicate experiments were fit to concentration-response curves by non-linear regression of the Hill equation. Curve-fit parameters and standard errors were calculated using GraphPad Prism 6.0 (Hercules, CA, USA).

[4] = tested on: formalin-induced licking behavior in mice; assay: Formalin-induced licking behavior; assay type: in vivo, Swiss Webster mice
Method: This assay was performed as described by Hunskaar et al. and adapted by Gomes et al.. This model was characterized by a response that occurred in two phases. The first phase (acute neurogenic pain) occurred during the first 5 min after the intraplantar injection of formalin, and the second phase (inflammatory pain) occurred 15 to 30 min post-injection. Mice were pretreated with oral doses of LASSBio-2265 (11, at 1, 3 or 10 mg/kg, p.o.), morphine (2.5 mg/kg, i.p.), acetylsalicylic acid (ASA, 200 mg/kg, p.o.), or the vehicle (same amount of DMSO used to solubilize the substances + NaCl 0.9%) 60 min before the administration of formalin. […] Then, mice (n = 7 per group) received 20 μL of formalin (2.5% v/v) in the dorsal surface of the left hind paw. The time that the mice spent licking the injected paw was immediately recorded. […] The final volume administered to mice was 0.1 mL.

human CB1 = target: T2, human CB1 (Homo sapiens, UniProt P21554); assay: Agonist activity, cAMP in CB1-transfected CHO cells; assay type: cell-based; conditions: CB1-expressing CHO cells
T2 construct: host or cells: CHO cells
T2 sequence (P21554 whole entry): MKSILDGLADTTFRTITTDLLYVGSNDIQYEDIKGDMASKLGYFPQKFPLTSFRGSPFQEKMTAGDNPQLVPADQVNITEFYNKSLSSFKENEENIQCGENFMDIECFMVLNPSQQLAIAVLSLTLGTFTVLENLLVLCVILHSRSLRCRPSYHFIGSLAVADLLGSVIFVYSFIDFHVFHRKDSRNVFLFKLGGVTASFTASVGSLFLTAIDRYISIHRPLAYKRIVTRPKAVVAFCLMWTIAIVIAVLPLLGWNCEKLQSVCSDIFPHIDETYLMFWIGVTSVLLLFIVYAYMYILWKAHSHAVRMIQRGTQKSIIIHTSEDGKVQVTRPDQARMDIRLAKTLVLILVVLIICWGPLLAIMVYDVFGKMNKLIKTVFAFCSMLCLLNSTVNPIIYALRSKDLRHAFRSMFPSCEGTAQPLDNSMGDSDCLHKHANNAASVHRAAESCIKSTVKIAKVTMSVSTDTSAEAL
Method: (§2) Negative and blank controls were performed in triplicate with and without the addition of forskolin, respectively.

human CB2 [5] = target: T1, human CB2; assay: Human CB2 (agonist radioligand) receptor binding assay, [3H]-WIN 55212-2; design: host or cells: cAMP Hunter CHO-K1 CNR2 Gi; conditions: membranes from CB2-expressing CHO cells, [3H]-WIN55212-2 radioligand, duplicate
Method: Assays of binding to CB2 receptors were performed at Eurofins Discovery France (https://www.eurofinsdiscoveryservices.com/) under the study number 100057099 (accessed on 3 June 2021) using the protocol previously published by Munro, Thomas, and Abu-Shaar. Human recombinant CB2 receptors were expressed in CHO cells, and binding was performed with [^3H]-WIN 55212-2, which is a nonselective agonist radioligand. The analysis was performed using software developed at Cerep (Hill software, Santa Barbara, CA, USA) and SigmaPlot 4.0 for Windows (^©1997 by SPSS Inc., Chicago, IL, USA).
as §1

plasma carboxylesterases = assay: Plasma stability against enzymatic hydrolysis; assay type: in vitro ADME, Wistar rats; conditions: rat plasma, determined after 240 min
Method: For the evaluation of plasma stability against plasma carboxylesterases, a pool of plasma male Wistar rats weighing 300–360 g kept in the vivarium of the Laboratory of Biochemical and Molecular Pharmacology-UFRJ was used. Blood was collected with heparin and kept on ice. Then, the samples were centrifuged at 2000 rpm for 15 min at 20 °C, with subsequent removal of the plasma. The plasma was then diluted 80% (v/v) with phosphate buffer (PBS; pH = 7.4) at 37 °C. The experiments performed in this work were approved by the Ethics Committee on the Use of Animals in Scientific Experiments of the Health Sciences Center of the Federal University of Rio de Janeiro (Number 028/15). The biological matrix was incubated at 37 °C under agitation for 30, 60, 120, and 240 min. The degree of degradation was evaluated by HPLC-PDA with methyl 1,1′bisphenyl-4-carboxylate as an internal standard (PI), using an isocratic mobile phase of 70%:30% acetonitrile:water (0–15 min), an injection volume of 20 μL, a flow rate of 1 mL/min, and detection at 254 nm.

[6] = Parallel artificial membrane permeability assay, blood-brain barrier (PAMPA-BBB)
Method: In a 5 mL glass vial, 1 mg of each compound (test or control) was dissolved in 1 mL of ethanol. Then, 500 μL of ethanol and 3.5 mL of PBS at pH 7.4 were added to this solution. […] After 5 min, the donor plate received 180 μL of each compound solution in triplicate. […] The experiments were performed in triplicate with two different analyses (n = 2).

[7] = Aqueous solubility (thermodynamic, UV spectroscopy); assay type: physicochemical; conditions: aqueous buffer, thermodynamic from solid, phosphate buffer pH 7.4, 37 °C
Method: The test was performed based on the absorbance obtained by ultraviolet spectroscopy. The scanning wavelength was determined according to the highest absorbance observed for each compound. Saturated aqueous solution of the analyzed compounds were stirred for 4 h at 37 °C, and then filtered through a 0.45 µm PVDF filter and transferred to a quartz cuvette (10 mm optical path) for reading. Solubility was determined by linear regression based on the equation of the line.

human CB2 [8] = target: T1, human CB2; assay: Agonist activity, cAMP in CB2-transfected CHO cells; assay type: cell-based; design: host or cells: CHO cells; conditions: CB2-expressing CHO cells, from 1 μM
Method: as §2

Structure (SMILES): Cc1c(N(C)C(=O)C(C)c2ccc(-c3ccccc3)c(F)c2)c(=O)n(-c2ccccc2)n1C (centres unmarked) [Compound 11, N-(1,5-dimethyl-3-oxo-2-phenyl-2,3-dihydro-1H-pyrazol-4-yl)-2-(2-fluoro-[1,1’-biphenyl]-4-yl)-N-methylpropanamide]
- Papp at 8 h, 0.5 mM ([1]; PAMPA): 10.2 ×10⁻⁶ cm/s
- Classification ([1]; Table S1, PAMPA-GTI): HIGH (high intestinal permeability: >70%)
- Pe Exp ([1]; Table S1, PAMPA-GTI): 10,18 10-6 cm/s
- Fa ([1]; Table S1, PAMPA-GTI, absorbed fraction): 97,91%
- PAMPA-GI Fa Exp ([1]; absorbed fraction, soybean L-α-phosphatidylcholine membrane): 97.91%
- logD [2]: 1.98
- Emax (human CB2 [3]; CHO-K1, read-out: Emax (efficacy, % of the maximum effect)): 63%
- EC50 (human CB2 [3]): 369 ± 30 nM
- Antinociceptive effect in the formalin test ([4]; 3 mg/kg): decreased pain behaviour
- Analgesia in the second (late, inflammatory) phase of the formalin test ([4]; LASSBio-2265 1, 3 and 10 mg/kg p.o., morphine 2.5 mg/kg, ASA 200 mg/kg, listed as LASSBio-2265 (11)): remarkable analgesic activity in the late inflammatory phase; also recorded: comparable to both morphine and ASA
- Analgesia in the first phase of the formalin test ([4]; morphine 2.5 mg/kg i.p., ASA 200 mg/kg p.o., LASSBio-2265 1, 3 and 10 mg/kg p.o., compared to vehicle): only morphine (2.5 mg/kg) promoted significant analgesia
- Effect on cAMP concentration (human CB1): no effect was observed
- Ki (human CB2 [5]): 16 µM
- Plasma Metabolization Rate (plasma carboxylesterases): 13.04%
- Papp at 2.75 h, 0.2 mg/mL ([6]; PAMPA, pH 7.4): 9.26 ×10⁻⁶ cm/s
- Classification ([6]; Table S2, PAMPA-BBB): CNS +
- Pe experimental ([6]; Table S2, PAMPA-BBB): 9,26 10-6 cm s-1
- PAMPA-BBB Score ([6]; porcine brain lipid membrane): CNS+ (CNS+ (high predicted BBB permeability) Pe > 4.0 × 10^−6 cm/s)
- solubility at 4 h [7]: 68.5 µM (≈ 30.4 µg/mL)
- Effect on cAMP concentration (human CB2 [8]): important effect starting from 1 μM
